Residues, ends and D or L forms follow the SMILES beside them.
Tested on: hamsters
Assay: Ovulation enhancement study in hamsters (ova count after 4 days of subcutaneous dosing)
Type: in vivo
Details: ova counted on fifth day, untreated control mean 11.3
Experimental: In one study carried out with hamsters utilizing H--Thr--Arg--Lys--Arg--OH diacetate, each of six animals was injected subcutaneously at various dosage levels as indicated in the Table for each of the four days of the estrous cycle. On the fifth day, the animals were sacrificed, the left and right ovaries and oviducts of each animal collected, sectioned, stained, and the ova counted. The figures given in the second column are the mean numbers of ova for six animals at each dosage level. In a control group of 20 animals which were not treated with the ovulation enhancing compound, the mean number of ova counted under similar conditions was 11.3.

For C[C@@H](O)[C@H](N)C(=O)N[C@@H](CCCNC(=N)N)C(=O)N[C@@H](CCCCN)C(=O)N[C@@H](CCCNC(=N)N)C(=O)O [H--Thr--Arg--Lys--Arg--OH diacetate, H--Thr--Arg--Lys--Arg--OH] (H-TRKR-OH), which “Number of OVA (mean number of ova for six animals)” value (from here on “Number of OVA”) (0.10 μgm/100 gm/day on each of the four days of the estrous cycle) is on record?
The value was 13.7.

What about the “Number of OVA” value (0.30 μgm/100 gm/day on each of the four days of the estrous cycle) of the same compound?
The value was 14.1.

What about the “Number of OVA” value (3.00 μgm/100 gm/day on each of the four days of the estrous cycle) of the same compound?
Its value is 15.5.

What about the “Number of OVA” value (30.00 μgm/100 gm/day on each of the four days of the estrous cycle) of the same compound?
The value was 15.6.

From patent publication US4181717A, “Ovulation enhancing peptides” (Research Corporation, priority 1978, dated 1980)
